In patent US8501936B2 (priority 2009, dated 2013):

Tests used:
[1] = target: human JAK2 (Homo sapiens (Human), UniProt O60674); conditions: read-out: JAK2 IC50
[2] = target: human FAK (Homo sapiens (Human), UniProt Q05397); conditions: read-out: FAK IC50
human FAK, sequence (Q05397 whole entry): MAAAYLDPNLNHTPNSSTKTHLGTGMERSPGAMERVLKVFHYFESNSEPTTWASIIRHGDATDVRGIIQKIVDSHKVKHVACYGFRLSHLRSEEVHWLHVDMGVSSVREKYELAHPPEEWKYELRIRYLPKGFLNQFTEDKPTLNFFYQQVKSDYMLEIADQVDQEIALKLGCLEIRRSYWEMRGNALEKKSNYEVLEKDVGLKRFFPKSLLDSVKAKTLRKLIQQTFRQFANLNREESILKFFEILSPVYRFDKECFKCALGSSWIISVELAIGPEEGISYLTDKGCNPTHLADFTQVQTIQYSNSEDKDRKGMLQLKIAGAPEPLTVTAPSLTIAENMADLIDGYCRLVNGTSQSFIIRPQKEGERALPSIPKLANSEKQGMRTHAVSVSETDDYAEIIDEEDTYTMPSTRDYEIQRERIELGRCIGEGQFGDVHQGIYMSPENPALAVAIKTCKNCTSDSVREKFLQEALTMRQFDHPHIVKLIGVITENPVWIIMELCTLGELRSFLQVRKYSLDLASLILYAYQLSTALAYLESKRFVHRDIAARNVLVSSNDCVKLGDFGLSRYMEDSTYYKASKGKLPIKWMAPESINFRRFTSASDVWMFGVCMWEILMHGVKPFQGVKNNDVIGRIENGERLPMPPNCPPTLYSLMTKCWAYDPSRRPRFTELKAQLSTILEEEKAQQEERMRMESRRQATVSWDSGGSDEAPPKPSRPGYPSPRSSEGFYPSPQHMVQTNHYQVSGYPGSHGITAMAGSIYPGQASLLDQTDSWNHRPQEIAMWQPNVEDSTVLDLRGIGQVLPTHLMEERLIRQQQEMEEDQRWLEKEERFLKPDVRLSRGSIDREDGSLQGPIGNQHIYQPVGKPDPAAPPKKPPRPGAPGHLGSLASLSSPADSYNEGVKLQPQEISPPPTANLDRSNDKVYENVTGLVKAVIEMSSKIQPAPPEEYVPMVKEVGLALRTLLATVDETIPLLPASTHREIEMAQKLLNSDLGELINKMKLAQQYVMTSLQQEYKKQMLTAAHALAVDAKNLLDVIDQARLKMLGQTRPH
Experimental: The ability of compounds to inhibit the kinase activity of baculovirus-expressed human FAK and PYK2 was measured using the 96-well plate TRF assay system described above for JAK2. […] For the FAK kinase assay, the reaction mixture (total volume=100 μL/well) contained 20 mM HEPES (pH 7.2), 10 μM ATP, 5 mM MgCl2, 0.5 mM DTT, 0.1% BSA, and test compound (diluted in DMSO; 2.5% DMSO final in assay). For PYK2, the 100 μL assay solution consisted of 20 mM HEPES (pH 7.2), 3 μM ATP, 5 mM MnCl2, 0.1% BSA, and test compound (diluted in DMSO; 2.5% DMSO final in assay). Enzyme (10 ng/mL FAK or 25 ng/mL PYK2) was added and the reaction was allowed to proceed at room temperature for 30 min. Detection of the phosphorylated product was performed by adding 100 μL/well of Eu—N1 labeled PY100 antibody diluted 1:75000 in 0.25% BSA in TBS-T (PerkinElmer #AD0041). […] Inhibition data were analyzed using ActivityBase and IC50 curves generated using XLFit.

human JAK2, sequence (O60674 815-1132): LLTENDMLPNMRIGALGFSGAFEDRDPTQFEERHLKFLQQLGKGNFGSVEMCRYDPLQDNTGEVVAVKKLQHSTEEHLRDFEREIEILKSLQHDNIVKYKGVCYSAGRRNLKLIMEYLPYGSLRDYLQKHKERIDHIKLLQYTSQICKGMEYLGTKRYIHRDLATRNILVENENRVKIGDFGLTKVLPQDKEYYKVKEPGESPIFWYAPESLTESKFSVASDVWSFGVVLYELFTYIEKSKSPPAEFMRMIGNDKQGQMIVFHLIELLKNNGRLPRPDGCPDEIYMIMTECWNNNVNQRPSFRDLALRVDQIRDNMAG

`CN1CCN(c2cccc(Nc3nc4cccc(-c5ccc(CN6CCS(=O)(=O)CC6)cc5)n4n3)c2)CC1` [Example 71, 5-{4-[(1,1-dioxidothiomorpholin-4-yl)methyl]phenyl}-N-[3-(4-methylpiperazin-1-yl)phenyl][1,2,4]triazolo[1,5-a]pyridin-2-amine] showed an IC50 [1] of 0.8 nM and an IC50 [2] of 502 nM.

In the case of `CN1CCC(c2ccc(Nc3nc4c(Nc5cccnc5N(C)S(C)(=O)=O)cccn4n3)cc2)CC1` [Example 133, N-Methyl-N-(3-{2-[4-(1-methyl-piperidin-4-yl)-phenylamino]-[1,2,4]triazolo[1,5-a]pyridin-8-ylamino}-pyridin-2-yl)-methanesulfonamide], the IC50 [1] is reported as 17.4 nM and the IC50 [2] is reported as 2070 nM.

In the case of `CS(=O)(=O)c1cccc(-c2cccn3nc(Nc4ccc(OCCN5CCCC5)cc4)nc23)c1` [Example 13, [8-(3-Methanesulfonyl-phenyl)-[1,2,4]triazolo[1,5-a]pyridin-2-yl]-[4-(2-pyrrolidin-1-yl-ethoxy)-phenyl]-amine], the IC50 [1] is reported as 3 nM and the IC50 [2] is reported as 524 nM.

For `FC(F)COc1ccc(C(F)F)cc1-c1cccn2nc(Nc3ccc4c(c3)CCNCC4)nc12` [Example 384, {8-[2-(2,2-Difluoro-ethoxy)-5-difluoromethyl-phenyl]-[1,2,4]triazolo[1,5-a]pyridin-2-yl}-(2,3,4,5-tetrahydro-1H-3-benzazepin-7-yl)-amine], the IC50 [1] was 203 nM and the IC50 [2] was 1080 nM.

`CN1CCN(c2cccc(Nc3nc4c(NCc5cccnc5N(C)S(C)(=O)=O)cccn4n3)c2)CC1` [Example 136, N-Methyl-N-[3-({2-[3-(4-methyl-piperazin-1-yl)-phenylamino]-[1,2,4]triazolo[1,5-a]pyridin-8-ylamino}-methyl)-pyridin-2-yl]-methanesulfonamide] gave an IC50 [1] of 77.2 nM and an IC50 [2] of 71.1 nM.

With `CN1CCN(c2ccc(Nc3nc4c(N(C)Cc5ccccc5N(C)S(C)(=O)=O)cccn4n3)cc2)CC1` [Example 185, N-Methyl-N-{2-[(methyl-{2-[4-(4-methyl-piperazin-1-yl)-phenylamino]-[1,2,4]triazolo[1,5-a]pyridin-8-yl}-amino)-methyl]-phenyl}-methanesulfonamide] the IC50 [1] was 51.1 nM and the IC50 [2] was 62.5 nM.

Work on `CCOc1ccc(C(F)(F)F)cc1-c1cccn2nc(Nc3ccc4c(c3)CCN(CC(=O)N(C)C)CC4)nc12` [Example 321, 2-{7-[8-(2-Ethoxy-5-trifluoromethyl-phenyl)-[1,2,4]triazolo[1,5-a]pyridin-2-ylamino]-1,2,4,5-tetrahydro-3-benzazepin-3-yl}-N,N-dimethyl-acetamide] yielded an IC50 [1] of 223 nM and an IC50 [2] of 1780 nM.

`COc1ccc(-c2cccn3nc(Nc4ccc(N5CCOCC5)cc4)nc23)cn1` [Example 8, [8-(6-Methoxy-pyridin-3-yl)-[1,2,4]triazolo[1,5-a]pyridin-2-yl]-(4-morpholin-4-yl-phenyl)-amine] gave an IC50 [1] of 13.4 nM and an IC50 [2] of 1480 nM.

`CN1CCN(c2cccc(Nc3nc4c(-c5ccc(N6CCC(N7CCN(C)CC7)CC6)cc5)cccn4n3)c2)CC1` [Example 206, [3-(4-Methyl-piperazin-1-yl)-phenyl]-(8-{4-[4-(4-methyl-piperazin-1-yl)-piperidin-1-yl]-phenyl}-[1,2,4]triazolo[1,5-a]pyridin-2-yl)-amine] was tested, and the IC50 [1] was 45 nM and the IC50 [2] was 3000 nM.

`COc1cc(Cl)ccc1-c1cccn2nc(Nc3ccc4c(c3)CCN(CC(=O)N(C)C)C4)nc12` [Example 331, 2-{6-[8-(4-Chloro-2-methoxy-phenyl)-[1,2,4]-triazolo[1,5-a]pyridin-2-ylamino]-3,4-dihydro-1H-isoquinolin-2-yl}-N,N-dimethyl-acetamide] showed an IC50 [1] of 21.2 nM and an IC50 [2] of 6500 nM.

`CN1CCC(c2cccc(Nc3nc4c(-c5cccc(N(C)S(C)(=O)=O)c5)cccn4n3)c2)CC1` [Example 129, N-Methyl-N-(3-{2-[3-(1-methyl-piperidin-4-yl)-phenylamino]-[1,2,4]triazolo[1,5-a]pyridin-8-yl}-phenyl)-methanesulfonamide] was tested, and the IC50 [1] was 8.88 nM and the IC50 [2] was 759 nM.
